# Results as given in patent publication US6653354B2, “NMDA antagonist comprising xenon” (priority 1999, dated 2003).
# Entries after “also recorded” stand apart in the source; their conditions may differ.
# Tests used:
# [1] = tested on: glutamatergic synapses (NMDA receptor slow component, AMPA/KA receptor fast component) of hippocampal neurons; assay: Excitatory (glutamatergic) postsynaptic currents, voltage-clamped autaptic hippocampal neurons; assay type: cell-based, rat
# Procedure: Hippocampal neurons were grown in culture using methods described previously (Segal M M et al, J. Neurophysiol. 1990, 64:1390-1399; Bekkers J M et al, Proc. Natl. Acad. Sci. U.S.A. 1991, 88:7834-7838; Mennerick S et al, J. Neurophysiol. 1995, 73:320-332). Briefly, hippocampi from Sprague Dawley rats (postnatal day 1-3) were dissected, roughly sliced and agitated in a papain-containing solution (20 units ml^−1) for 30 minutes at 37 EC. After washing with enzyme-free solution, the tissue was gently triturated with a fire-polished Pasteur pipette and the cells were plated out at a density of 8-10×10^4 cells ml^−1 and cultured (95% air/5% CO2) at 37° C. Glass coverslips used for culturing the cells were first coated with agarose (0.15% w/v) and then sprayed with a fine mist of poly-D-lysine (PDL) and collagen (0.1 mg ml^−1 PDL and 0.5 mg ml^−1 rat-tail collagen) from a glass micro-atomiser and sterilized by UV exposure. This produced micro-islands of permissive substrate with diameters of between 100 and 1000 μm. At 3-4 days after plating, when the glial cell layer was about 80% confluent, an anti-mitotic agent (cytosine β-D-arabinofuranoside, 5 μM) was added to arrest glial cell proliferation. Neuronal cultures were then allowed to mature for another 4-9 days. We used micro-islands which contained single isolated neurons whose axonal processes and dendritic trees formed multiple self-synapses (autapses). This procedure provided a large population of phenotypically identical monosynaptic connections.
# The neurons were voltage-clamped using the whole-cell recording technique (Axopatch 200 amplifier, Axon Instruments, Foster City, Calif.). Electrodes were fabricated from borosilicate glass and typically had resistances of between 3-5 MΩ. Series resistance was compensated by 75-90%. Neurons were voltage-clamped at −60 mV, and synaptic responses were stimulated by a 2 ms depolarising pulse to +20 mV. […] For the synaptic measurements, data were sampled at 50 kHz, filtered at 20 kHz (−3 dB, 8-pole Bessel) and stored on a computer. The extracellular recording solution was (mM) 137 NaCl, 5 KCl, 3 CaCl2, 5 HEPES, 10 glucose, 0.001 glycine, 0.0001 strychnine-HCl, titrated to pH 7.3 with NaOH; and the intracellular (pipette) solution was (mM) 140 KCl, 4 NaCl, 0.5 EGTA, 2 MgATP, 10 HEPES, titrated to pH 7.25 with KOH.
# Xenon solutions were prepared by first bubbling pure gases (oxygen, nitrogen or xenon) through fine sintered-glass bubblers in 250- or 500-ml Drechsel bottles filled with extracellular recording saline. […] (To minimise oxidization, the neurotoxins and neurotransmitters were excluded from the fully oxygenated saline.) During bubbling, the solutions were continually stirred at room temperature. These solutions were then mixed to achieve the desired final concentrations of the gases. Our control solutions usually contained 80% of the nitrogen solution and 20% of the oxygen solution, while our test solutions usually contained 80% of the xenon solution and 20% of the oxygen solution. Using a Bunsen water/gas partition coefficient of 0.0965 (Smith R A et al, Biochim. Biophys. Acta 1981, 645:327-338) we calculate that our standard test solution contained 3.4 mM xenon. Xenon (research grade, 99.993% pure) was supplied by BOC gases, Guildford, Surrey, UK. In all cases xenon was pre-applied to the neurons for at least 30 seconds before the initiation of synaptic currents.
# In order to obtain an estimate for the total charge transfer, the EPSCs or IPSCs were numerically integrated.
# [2] = tested on: humans; assay: MAC / anaesthetic EC50 in humans; assay type: in vivo; settings: 37° C.
# Procedure: (§1) The gaseous concentration of xenon which prevents a response to a painful stimulus (i.e. MAC) appears to vary among species, being 71% atm in humans (Cullen SC et al, Anesthesiology 1969, 31:305-309), 98% atm in rhesus monkeys (Whitehurst S L et al, J. Neurosurg. Anesthesiol. 1994, 6:275-279) and 161% atm in rats (Koblin D D et al, Anesth. Analg. 1998, 87:419-424). When these values are converted to free aqueous concentrations at 37° C. (Franks N P et al, Br. J. Anaesth. 1993, 71:65-76; Franks N P et al, Anesthesiology, 1996, 84:716-720) using an Ostwald water/gas partition coefficient of 0.0887 (Weathersby P K et al, Undersea Biomed. Res. 1980, 7:277-296), the values obtained are 2.5 mM, 3.4 mM and 5.6 mM for humans, monkeys and rats respectively, with the average value being 3.8 mM. For the experiments described herein, performed at room temperature, the concentration of xenon present in the standard test solution was 3.4 mM. […] This is illustrated with representative traces in FIG. 2.
# [3] = tested on: rhesus monkeys; assay: MAC in rhesus monkeys; assay type: in vivo; settings: 37° C.
# Procedure: as §1
# [4] = tested on: rats; assay: MAC in rats; assay type: in vivo; settings: 37° C.
# Procedure: as §1
# [5] = tested on: humans, monkeys and rats; assay: MAC as free aqueous concentration, average of humans, monkeys and rats; assay type: in vivo; settings: 37° C.
# Procedure: as §1
# [6] = excitatory currents + 3.4 mM xenon
smiles,measurement,setting,value
[Xe] [xenon],effect on the fast AMPA/KA receptor-mediated component,[1]; 3.4 mM (80%) xenon,barely changes; also recorded: only a small effect
same,effect on the glutamatergic (excitatory) synaptic current,[1]; 3.4 mM xenon,strongly depressed; also recorded: greatly depressed
same,Decay half-time % change (means ± SEM),[1]; [6],−22.7 ± 2.5%
same,Ifast % change (means ± SEM),[1]; [6],−4.1 ± 5.2%
same,Ipeak % change (means ± SEM),[1]; [6],−13.5 ± 1.8%
same,Islow % change (means ± SEM),[1]; [6],−70.3 ± 2.4%
same,Qfast % change (means ± SEM),[1]; [6],−11.4 ± 5.6%
same,Qslow % change (means ± SEM),[1]; [6],−68.2 ± 4.2%
same,Total charge transfer % change (means ± SEM),[1]; [6],−55.6 ± 2.7%
same,τfast % change (means ± SEM),[1]; [6],−12.3 ± 1.8%
same,τslow % change (means ± SEM),[1]; [6],−6.7 ± 6.5%
same,MAC converted to free aqueous concentration,[2],2.5 mM
same,MAC converted to free aqueous concentration,[3],3.4 mM
same,MAC converted to free aqueous concentration,[4],5.6 mM
same,"MAC as free aqueous concentration, average value",[5],3.8 mM
